According to US9365830B2, “Agents and methods for inhibiting human pluripotent stem cell growth” (VIACYTE, INC., priority 2010, dated 2016):

Legend:
[1] = tested on: hESCs (BG02); experiment: Real-time impedance assay (RT-CES) for inhibitory and cytotoxic agents on hESCs; conditions: 10 μM compound added after about 24 hours, cultured about 5 more days; compared to DMSO control
Source text: The foregoing 176 selected compounds from the complete LOPAC1280™ library were then used to screen human pluripotent stem cells, e.g., hESCs, and differentiating cultures during Stage 1 (definitive endoderm) using a real-time impedance assay (ACEA biosciences RT-CES system). The RT-CES system uses 96-well trays that contain embedded microsensors to monitor changes in electrical impedance, which is translated into a measure of cell index. Any overt alteration within a cell culture can be detected, including but not limited to cell proliferation, migration, cell spreading, apoptosis, differentiation and the like. […] An increase in the cell index indicates proliferation of the cells, for example, proliferation of the undifferentiated cells. […] See also FIG. 1. […] A “scallop” cell index is one which remains high due to a confluent culture of cells, but will go down and up (scallop) between daily feedings. Conversely, cells undergoing differentiation have distinctive patterns, such as peaks and troughs in the cell index, potentially indicative of an epithelial-to-mesenchymal transition, flattening, cell migration, apoptosis or similar differentiation and growth related changes.
Impedance Assay for Inhibitory and Cytotoxic Agents. Human pluripotent stem cells, e.g., 2×10^4 hESCs (BG02), were cultured in DC-HAIF, a heregulin-based defined media, with daily feeding in the impedance monitoring plates. After about 24 hours, and 10 μM of the selected LOPAC1280™ compound was added to each well (see arrowhead in FIGS. 3 A & B) and cultured for about an additional 5 days.

[2] = tested on: undifferentiated hESCs growing in adherent culture; experiment: EC50 of cytotoxic effect on undifferentiated hESCs in adherent culture, real-time impedance assay; assay type: cell-based, human; conditions: Homo sapiens, read-out: EC50 concentrations for hES cells (cytotoxic effect)
Procedure: In summary, the final three (3) candidates identified from both the primary and secondary screens (EXAMPLE 1) and the full screen of the LOPAC1280™ collection (EXAMPLE 2) were Chelerythrine Chloride, Caffeic acid and Ivermectin. FIG. 11 lists the known or inferred mode(s) of action for these three compounds, as well as their structures. EC50 values for the respective cytotoxic effects on undifferentiated hESCs growing in adherent culture were determined using real-time impedance assays.
Depletion of OCT4-positive cells during Stage 1 differentiation was examined using the plating assay described above. Stage 1 differentiations of hES cells were treated from day 1 to 2 with the candidate compounds as described in Example 2 (chelerythrine chloride, caffeic acid and Ivermectin), at their EC50 concentrations for hES cells. Plated untreated and DMSO-treated aggregates were indistinguishable, and both contained discrete clusters of OCT4-positive cells. See FIG. 13A top and bottom panels for a DMSO treated example. The intensity of OCT4-positive staining in differentiating aggregate cell cultures treated with DMSO (control) was equivalent to undifferentiated hES cells.

[3] = tested on: differentiating Stage 1 cultures (definitive endoderm); experiment: Secondary screen on differentiating Stage 1 cultures in 6-well trays; assay type: cell-based, human; conditions: compounds added to differentiating Stage 1 cultures
Source text: (§1) The impedance assay on the hESCs using the compounds in Table 4 above gave greater than twenty (20) hits. However, the ideal candidate compound of the present invention should not only be inhibitory or cytotoxic to human pluripotent stem cells, such as hESCs or hIPSCs, but should at the same time have no effect on cell viability of differentiated or differentiating cell populations including Stage 1, 2, 3, 4 and 5 type cells cultures (definitive endoderm, foregut endoderm, posterior foregut, pancreatic endoderm and endocrine cells, respectively). […] Approximately 3×10^4 hES cells were plated per well and grown for 24 hrs in DC-HAIF defined medium (i.e. StemPro® hESC SFM medium (Life Technologies, Carlsbad, Calif.). Stage 1 or definitive endoderm differentiation was then induced by changing the medium and culturing in RPMI, 100 ng/mL Activin A, and 10 ng/mL of FGF2. […] of GSK-3 beta Inhibitor 15 (Calbiochem #361558) as added to the culture for the first 24 hours of differentiation only. 10 μM of each of the candidate compounds were added about 48 hours or 2 days after differentiation was induced (see FIGS. 3 C & D, large arrowhead), and the cells were cultured for an additional 2 days.
Secondary Screen with Selected Compounds. A secondary screen using 9 of the 10 candidate compounds in Table 5 was performed by adding the compounds to differentiating Stage 1 cultures (definitive endoderm) as described above. For the secondary screen, larger standard 6-well trays were used instead of the RT-CEAS 96-well culture plates used in primary screens employing impedance assays. Only 9 of the 10 compounds in Table 5 were tested because the 10th was not available in sufficient quantity at the time the assays were performed. In the larger, 6-well trays, 5 of the 9 compounds listed in Table 5 had no effect on viability of differentiating cells or differentiated definitive endoderm. […] This assay also confirmed that the viability of differentiating cells and differentiated definitive endoderm cells was apparently consistent regardless of the numbers of cells tested, or the size, volume, or source of the culture vessel.

[4] = tested on: adherent Stage 1 cell cultures of BG02; experiment: Q-PCR marker gene expression, adherent Stage 1 cultures of BG02; assay type: cell-based, human
Source text: FIGS. 4A-4G are bar graphs showing the relative gene expression levels of OCT4 (FIG. 4A), NANOG (FIG. 4B), FOXA2 (FIG. 4C), SOX17 (FIG. 4D), SOX7 (FIG. 4E), PAX6 (FIG. 4F) and ZIC1 (FIG. 4G) BG02 with treatment of candidate selective cytotoxic agents from the LOPAC1280™ sublibrary (Table 4) to adherent Stage 1 cell cultures of BG02. Expression levels were normalized using the geometric mean of three housekeeping genes, GUSB, CYCG and TBP. The graphs depict fold regulation compared to the hESC sample. The large arrow heads indicate time of the drug treatment. D=DMSO (control); C=Chelerythrine Chloride; A=AG490; B=BTO-1; De=Dephostatin; S=SU6656.
Screen for Effects on Stages 1-5 Differentiation. To further determine whether these 5 candidate compounds added at Stage 1 affected other differentiated cell types (e.g. Stages 2-5: foregut endoderm, posterior foregut endoderm, pancreatic endoderm and endocrine precursor cells, respectively), hES were differentiated in the presence or absence of compounds, and RNA samples were taken at various stages for gene expression analysis by Q-PCR.
Gene expression levels were plotted relative to a DMSO treated control at the end of Stage 1 (FIG. 4), and relative to undifferentiated hESC aggregates (FIGS. 5 and 6). See “Control” in FIGS. 4, 5 & 6. […] Chelerythrine chloride, Dephostatin, SU 6656 and Tyrphostin AG 490 compounds each caused an increase in SOX17 gene expression as compared to the DMSO control, consistent with the gene expression profile for Stage 1 definitive endoderm cell cultures (FIG. 4D). However, Tyrphostin AG 490 (AG) and SU 6656 (SU) each caused a decrease in FOXA2 (HNF3β) expression as compared to the DMSO control, indicating adverse effects of these two compounds on definitive endoderm (FIG. 4C). Yet none of the compounds appeared to substantially impact expression of non-definitive endoderm markers including SOX7, PAX6 or ZIC1 (FIGS. 4 E, 4F & 4G), and were not, therefore, excluded on the basis of inducing differentiation to other cell types. […] This compound neither decreased OCT4 or NANOG expression, nor increased FOXA2 (HNF3β) or SOX17 expression, as would have been expected of a pluripotent stem cell-selective inhibitor/cytotoxic agent.

[5] = tested on: hESCs; experiment: Secondary screen, lowest effective dose on hESCs; assay type: cell-based, human; conditions: lowest concentration that elicited cytotoxicity; range 0.1 to 50 μM; read-out: ED hESC (lowest effective dose)
Procedure: To expand the number of potential candidate hESC cytotoxic and inhibitory compounds, the complete LOPAC1280™ collection (containing 1,280 compounds) was screened. In the primary screen, cytotoxicity was tested on undifferentiated hESCs (about 3×10^4 BG01 cells) in 16 standard 96-well trays, in DC-HAIF defined medium on growth factor-reduced MATRIGEL™ diluted 1:200, which were fed daily (FIG. 7A). 10 μM of each compound was added to the hESCs one day after plating, and the cells were cultured for an additional 2 days. Plates were then fixed and stained for alkaline phosphatase (AP) to identify relative decreases in proliferation or growth of hESCs (as reduced AP staining), indicative of lower proportions of hESCs. See the circled wells in FIG. 7A.
(§2) Using a range of different concentrations from 0.1 to 50 μM, the forty compounds in Table 6 were re-screened (secondary screen) using hESCS and NPCs. The effective dose (ED) was defined as the lowest concentration of a compound that elicited cytotoxicity during the secondary screen. […] The darker wells were indicative of the increased numbers or percentages of proliferating or growing pluripotent stem cells in the wells. In addition, these 40 compounds were screened on differentiating definitive endoderm (DE) cell cultures in 96-well plate impedance assays (described above) to determine which of these compounds were not cytotoxic to definitive endoderm cells at the lowest effective dose on either hESC or NPC. […] See “ACEA DE” column in Table 6.

[6] = tested on: differentiating definitive endoderm (DE) cell cultures; experiment: 96-well plate impedance assay (ACEA) on differentiating definitive endoderm at lowest effective dose; assay type: cell-based, human; set-up: key: Viable: Compounds that did not appear to be cytotoxic toward differentiating DE cultures were marked as “viable”, meaning that the compound did not affect the survival, growth, proliferation or differentiation of the differentiated cells; conditions: at the lowest effective dose on either hESC or NPC
Source text: as §1, §2

[7] = tested on: NPCs; experiment: Secondary screen, lowest effective dose on NPCs; assay type: cell-based, human; conditions: lowest concentration that elicited cytotoxicity; range 0.1 to 50 μM; read-out: ED NPC (lowest effective dose)
Procedure: In addition, the complete LOPAC1280™ collection was also screened for effects on neural progenitor cells (NPCs) that were derived from the hESCs. Neural progenitors were plated in serum-free MedII conditioned medium at 6×10^4 cells/well and fed daily. Two days after plating, 10 μM of each compound was added and the cells were cultured for an additional 2 days. […] Reduced crystal violet staining was indicative of lower proportions of NPCs. See circled wells in FIG. 7B. The left and right columns of the LOPAC1280™ plates from which the compounds were dispensed were empty and served as untreated controls. […] See Table 6 below listing the name and class of activity of each candidate compound identified in this screen (except chelerythrine chloride, which is listed in Table 5). ChCl was not included in the subsequent round of screening. Therefore only 40 compounds were tested further.
as §2

## N#C/C(=C\c1ccc(O)c(O)c1)C(=O)Nc1ccccc1 [Tyrphostin AG 494]
[1]
  cell index (impedance); inhibitory or cytotoxic effect on the hESCs: significant decrease

## COc1ccc2c(c[n+](C)c3c4cc5c(cc4ccc23)OCO5)c1OC [Chelerythrine chloride]
[2]
  EC50: 1400 nM
[1]
  cell index (impedance); inhibitory or cytotoxic effect on the hESCs: significant decrease

## N#Cc1cc([N+](=O)[O-])c2sc(C(N)=O)[n+]([O-])c2c1 [BTO-1]
[3]
  Viability of Definitive Endoderm: Viable
[1]
  cell index (impedance); inhibitory or cytotoxic effect on the hESCs: significant decrease
[4]; end of Stage 1, compared to DMSO control (FIG. 4C)
  FOXA2 (HNF3β) expression: did not appear to have any effect
[4]; end of Stage 1, compared to DMSO control (FIG. 4D)
  SOX17 gene expression: did not appear to have any effect
[4]; end of Stage 1, compared to DMSO control (FIGS. 4A, 4B)
  OCT4 and NANOG gene expression: did not appear to have any effect

## CC(Cc1ccc(O)c(O)c1)C(C)Cc1ccc(O)c(O)c1 (stereo not drawn) [Nordihydroguaiaretic acid from Larrea, Nordihydroguaiaretic acid from Larrea divaricata (creosote bush)]
[5]
  minimal effective concentration: 5 µM
[1]
  cell index (impedance); inhibitory or cytotoxic effect on the hESCs: significant decrease
[6]
  ACEA DE: Viable
[7]
  minimal effective concentration: 5 µM
